System: not listed separately
Test: Cytotoxicity against mouse LMTK cells assessed as reduction in cell viability after 72 hrs by MTT assay
Type: toxicity
Details: not given

Row | Structure (SMILES) | IC50 at 72 h
1 | CC1(C)CC(CNC(=O)CCC(=O)O)C(C)(C)N1[O] (centres undefined) | > 300 µM
2 | Cc1c(C)c2c(c(C)c1OC(=O)CCC(=O)O)CCC(C)(C(=O)NC1CC(C)(C)N([O])C(C)(C)C1)O2 (centres undefined) | > 300 µM

System: not listed separately
Test: Cytotoxicity against human MT4 cells assessed as reduction in cell viability after 72 hrs by MTT assay
Type: functional, cell-based
Details: MT4, 72 h

Row | Structure (SMILES) | IC50
3 | CC1(C)CC(CNC(=O)CCC(=O)O)C(C)(C)N1[O] (centres undefined) | > 400 µM
4 | Cc1c(C)c2c(c(C)c1OC(=O)CCC(=O)O)CCC(C)(C(=O)NC1CC(C)(C)N([O])C(C)(C)C1)O2 (centres undefined) | 165 µM

System: not listed separately
Test: Ratio of IC50 for human CEM13 cells to concentration causing antioxidant activity in Salmonella typhimurium TA102 harboring […] mutant
Type: functional
Details: not given

Row | Structure (SMILES) | Ratio
5 | CC1(C)CC(CNC(=O)CCC(=O)O)C(C)(C)N1[O] (centres undefined) | 100 - 1000
6 | Cc1c(C)c2c(c(C)c1OC(=O)CCC(=O)O)CCC(C)(C(=O)NC1CC(C)(C)N([O])C(C)(C)C1)O2 (centres undefined) | 100 - 1000

System: not listed separately
Test: Cytotoxicity against human CEM13 cells assessed as reduction in cell viability at 300 uM after 72 hrs by MTT assay
Type: functional
Details: CEM13, 72 h

Row | Structure (SMILES) | inhibition at 300 µM
7 | Cc1c(C)c2c(c(C)c1OC(=O)CCC(=O)O)CCC(C)(C(=O)NC1CC(C)(C)N([O])C(C)(C)C1)O2 (centres undefined) | 30%

System: not listed separately
Test: Ratio of IC50 for human RPMI8226 cells to concentration causing antioxidant activity in Salmonella typhimurium TA102 harboring […] mutant
Type: functional, RPMI-8226
Details: not given

Row | Structure (SMILES) | Ratio
8 | CC1(C)CC(CNC(=O)CCC(=O)O)C(C)(C)N1[O] (centres undefined) | 100 - 1000
9 | Cc1c(C)c2c(c(C)c1OC(=O)CCC(=O)O)CCC(C)(C(=O)NC1CC(C)(C)N([O])C(C)(C)C1)O2 (centres undefined) | 100 - 1000

System: not listed separately
Test: Cytotoxicity against human MCF7 cells assessed as reduction in cell viability at 300 uM after 72 hrs by MTT assay
Type: functional
Details: MCF7, 72 h

Row | Structure (SMILES) | inhibition at 300 µM
10 | CC1(C)CC(CNC(=O)CCC(=O)O)C(C)(C)N1[O] (centres undefined) | 24%
11 | Cc1c(C)c2c(c(C)c1OC(=O)CCC(=O)O)CCC(C)(C(=O)NC1CC(C)(C)N([O])C(C)(C)C1)O2 (centres undefined) | 15%

System: not listed separately
Test: Cytotoxicity against human RPMI8226 cells assessed as reduction in cell viability after 72 hrs by MTT assay
Type: functional, cell-based
Details: RPMI-8226, 72 h

Row | Structure (SMILES) | IC50
12 | CC1(C)CC(CNC(=O)CCC(=O)O)C(C)(C)N1[O] (centres undefined) | > 300 µM
13 | Cc1c(C)c2c(c(C)c1OC(=O)CCC(=O)O)CCC(C)(C(=O)NC1CC(C)(C)N([O])C(C)(C)C1)O2 (centres undefined) | > 300 µM

System: Salmonella typhimurium
Test: Genotoxicity in Salmonella typhimurium TA102 harboring […] mutant assessed as frequency of reversion from histidine auxotrophy to prototrophy at 30 mM after 48 hrs by Ames test (reference value: 209 +/- 10 No _unit)
Type: toxicity, organism-based
Details: salmonella enterica subsp. enterica serovar typhimurium, 30000 µM

Row | Structure (SMILES) | Activity
14 | CC1(C)CC(CNC(=O)CCC(=O)O)C(C)(C)N1[O] (centres undefined) | 219
15 | Cc1c(C)c2c(c(C)c1OC(=O)CCC(=O)O)CCC(C)(C(=O)NC1CC(C)(C)N([O])C(C)(C)C1)O2 (centres undefined) | 216

System: not listed separately
Test: Ratio of IC50 for human HEPG2 cells to concentration causing antioxidant activity in Salmonella typhimurium TA102 harboring […] mutant
Type: functional
Details: not given

Row | Structure (SMILES) | Ratio
16 | CC1(C)CC(CNC(=O)CCC(=O)O)C(C)(C)N1[O] (centres undefined) | 100 - 1000
17 | Cc1c(C)c2c(c(C)c1OC(=O)CCC(=O)O)CCC(C)(C(=O)NC1CC(C)(C)N([O])C(C)(C)C1)O2 (centres undefined) | 100 - 1000

System: not listed separately
Test: Cytotoxicity against hamster AG17-1 cells assessed as reduction in cell viability at 300 uM after 72 hrs by MTT assay
Type: toxicity, cell-based, Cricetulus griseus
Details: Chinese hamster, read-out: INH

Row | Structure (SMILES) | cytotoxicity at 72 h, 300 µM
18 | CC1(C)CC(CNC(=O)CCC(=O)O)C(C)(C)N1[O] (centres undefined) | 0%
19 | Cc1c(C)c2c(c(C)c1OC(=O)CCC(=O)O)CCC(C)(C(=O)NC1CC(C)(C)N([O])C(C)(C)C1)O2 (centres undefined) | 36%

System: not listed separately
Test: Cytotoxicity against human HepG2 cells assessed as reduction in cell viability after 72 hrs by MTT assay
Type: functional, cell-based
Details: HepG2, 72 h

Row | Structure (SMILES) | IC50
20 | CC1(C)CC(CNC(=O)CCC(=O)O)C(C)(C)N1[O] (centres undefined) | > 300 µM
21 | Cc1c(C)c2c(c(C)c1OC(=O)CCC(=O)O)CCC(C)(C(=O)NC1CC(C)(C)N([O])C(C)(C)C1)O2 (centres undefined) | > 300 µM

System: not listed separately
Test: Ratio of IC50 for human MT4 cells to concentration causing antioxidant activity in Salmonella typhimurium TA102 harboring […] mutant
Type: functional
Details: not given

Row | Structure (SMILES) | Ratio
22 | CC1(C)CC(CNC(=O)CCC(=O)O)C(C)(C)N1[O] (centres undefined) | 100 - 1000
23 | Cc1c(C)c2c(c(C)c1OC(=O)CCC(=O)O)CCC(C)(C(=O)NC1CC(C)(C)N([O])C(C)(C)C1)O2 (centres undefined) | 100 - 1000

System: not listed separately
Test: Ratio of IC50 for human U937 cells to concentration causing antioxidant activity in Salmonella typhimurium TA102 harboring […] mutant
Type: functional, U-937
Details: not given

Row | Structure (SMILES) | Ratio
24 | CC1(C)CC(CNC(=O)CCC(=O)O)C(C)(C)N1[O] (centres undefined) | 100 - 1000
25 | Cc1c(C)c2c(c(C)c1OC(=O)CCC(=O)O)CCC(C)(C(=O)NC1CC(C)(C)N([O])C(C)(C)C1)O2 (centres undefined) | 100 - 1000

System: not listed separately
Test: Cytotoxicity against human HepG2 cells assessed as reduction in cell viability at 300 uM after 72 hrs by MTT assay
Type: functional
Details: HepG2, 72 h

Row | Structure (SMILES) | inhibition at 300 µM
26 | CC1(C)CC(CNC(=O)CCC(=O)O)C(C)(C)N1[O] (centres undefined) | 0%
27 | Cc1c(C)c2c(c(C)c1OC(=O)CCC(=O)O)CCC(C)(C(=O)NC1CC(C)(C)N([O])C(C)(C)C1)O2 (centres undefined) | 44%

System: not listed separately
Test: Cytotoxicity against human MCF7 cells assessed as reduction in cell viability after 72 hrs by MTT assay
Type: functional, cell-based
Details: MCF7, 72 h

Row | Structure (SMILES) | IC50
28 | CC1(C)CC(CNC(=O)CCC(=O)O)C(C)(C)N1[O] (centres undefined) | > 300 µM
29 | Cc1c(C)c2c(c(C)c1OC(=O)CCC(=O)O)CCC(C)(C(=O)NC1CC(C)(C)N([O])C(C)(C)C1)O2 (centres undefined) | > 300 µM

System: not listed separately
Test: Ratio of IC50 for human MCF7 cells to concentration causing antioxidant activity in Salmonella typhimurium TA102 harboring […] mutant
Type: functional
Details: not given

Row | Structure (SMILES) | Ratio
30 | CC1(C)CC(CNC(=O)CCC(=O)O)C(C)(C)N1[O] (centres undefined) | 100 - 1000
31 | Cc1c(C)c2c(c(C)c1OC(=O)CCC(=O)O)CCC(C)(C(=O)NC1CC(C)(C)N([O])C(C)(C)C1)O2 (centres undefined) | 100 - 1000

System: not listed separately
Test: Cytotoxicity against human RPMI8226 cells assessed as reduction in cell viability at 300 uM after 72 hrs by MTT assay
Type: functional
Details: RPMI-8226, 72 h

Row | Structure (SMILES) | inhibition at 300 µM
32 | CC1(C)CC(CNC(=O)CCC(=O)O)C(C)(C)N1[O] (centres undefined) | 13%
33 | Cc1c(C)c2c(c(C)c1OC(=O)CCC(=O)O)CCC(C)(C(=O)NC1CC(C)(C)N([O])C(C)(C)C1)O2 (centres undefined) | 14%

System: not listed separately
Test: Genotoxicity in Escherichia coli PQ37 expressing lacZ gene assessed as ratio of inducible beta-galactosidase activity to alkaline phosphatase activity at 30 mM after 2 hrs by SOS-chromotest relative to control
Type: toxicity
Details: Escherichia coli PQ37 cells expressing lacZ gene, read-out: FC

Row | Structure (SMILES) | fold induction at 2 h, 30000 µM
34 | Cc1c(C)c2c(c(C)c1OC(=O)CCC(=O)O)CCC(C)(C(=O)NC1CC(C)(C)N([O])C(C)(C)C1)O2 (centres undefined) | 1.1

System: not listed separately
Test: Genotoxicity in Escherichia coli PQ37 expressing lacZ gene assessed as ratio of inducible beta-galactosidase activity to alkaline phosphatase activity at 3 mM after 2 hrs by SOS-chromotest relative to control
Type: toxicity
Details: Escherichia coli PQ37 cells expressing lacZ gene, read-out: FC

Row | Structure (SMILES) | fold induction at 2 h, 3000 µM
35 | CC1(C)CC(CNC(=O)CCC(=O)O)C(C)(C)N1[O] (centres undefined) | 1.3

System: not listed separately
Test: Cytotoxicity against human U937 cells assessed as reduction in cell viability after 72 hrs by MTT assay
Type: functional, cell-based
Details: U-937, 72 h

Row | Structure (SMILES) | IC50
36 | CC1(C)CC(CNC(=O)CCC(=O)O)C(C)(C)N1[O] (centres undefined) | 282 µM
37 | Cc1c(C)c2c(c(C)c1OC(=O)CCC(=O)O)CCC(C)(C(=O)NC1CC(C)(C)N([O])C(C)(C)C1)O2 (centres undefined) | 123 µM

System: Salmonella enterica subsp. enterica serovar Typhimurium
Test: Antioxidant activity in Salmonella typhimurium TA102 harboring […] mutant assessed as inhibition of t-BuO2H-dependant mutant formation at 30 uM preincubated with compound followed by t-BuO2H addition after 48 hrs by Ames test
Type: functional
Details: not given

Row | Structure (SMILES) | inhibition
38 | CC1(C)CC(CNC(=O)CCC(=O)O)C(C)(C)N1[O] (centres undefined) | 11%
39 | Cc1c(C)c2c(c(C)c1OC(=O)CCC(=O)O)CCC(C)(C(=O)NC1CC(C)(C)N([O])C(C)(C)C1)O2 (centres undefined) | 19%

System: Salmonella enterica subsp. enterica serovar Typhimurium
Test: Antioxidant activity in Salmonella typhimurium TA102 harboring […] mutant assessed as inhibition of t-BuO2H-dependant mutant formation at 3 uM preincubated with compound followed by t-BuO2H addition after 48 hrs by Ames test
Type: functional
Details: not given

Row | Structure (SMILES) | inhibition
40 | CC1(C)CC(CNC(=O)CCC(=O)O)C(C)(C)N1[O] (centres undefined) | 21%
41 | Cc1c(C)c2c(c(C)c1OC(=O)CCC(=O)O)CCC(C)(C(=O)NC1CC(C)(C)N([O])C(C)(C)C1)O2 (centres undefined) | 18%

System: Salmonella enterica subsp. enterica serovar Typhimurium
Test: Antioxidant activity in Salmonella typhimurium TA102 harboring […] mutant assessed as inhibition of t-BuO2H-dependant mutant formation at 0.3 uM preincubated with compound followed by t-BuO2H addition after 48 hrs by Ames test
Type: functional
Details: not given

Row | Structure (SMILES) | inhibition
42 | CC1(C)CC(CNC(=O)CCC(=O)O)C(C)(C)N1[O] (centres undefined) | 15%
43 | Cc1c(C)c2c(c(C)c1OC(=O)CCC(=O)O)CCC(C)(C(=O)NC1CC(C)(C)N([O])C(C)(C)C1)O2 (centres undefined) | 10%

System: not listed separately
Test: Cytotoxicity against mouse LMTK cells assessed as reduction in cell viability at 300 uM after 72 hrs by MTT assay
Type: toxicity
Details: read-out: INH

Row | Structure (SMILES) | cytotoxicity at 72 h, 300 µM
44 | CC1(C)CC(CNC(=O)CCC(=O)O)C(C)(C)N1[O] (centres undefined) | 0%
45 | Cc1c(C)c2c(c(C)c1OC(=O)CCC(=O)O)CCC(C)(C(=O)NC1CC(C)(C)N([O])C(C)(C)C1)O2 (centres undefined) | 0%

System: not listed separately
Test: Cytotoxicity against hamster AG17-1 cells assessed as reduction in cell viability after 72 hrs by MTT assay
Type: toxicity, cell-based, Cricetulus griseus
Details: Chinese hamster

Row | Structure (SMILES) | IC50 at 72 h
46 | CC1(C)CC(CNC(=O)CCC(=O)O)C(C)(C)N1[O] (centres undefined) | > 300 µM
47 | Cc1c(C)c2c(c(C)c1OC(=O)CCC(=O)O)CCC(C)(C(=O)NC1CC(C)(C)N([O])C(C)(C)C1)O2 (centres undefined) | > 300 µM

System: not listed separately
Test: Cytotoxicity against human CEM13 cells assessed as reduction in cell viability after 72 hrs by MTT assay
Type: functional, cell-based
Details: CEM13, 72 h

Row | Structure (SMILES) | IC50
48 | CC1(C)CC(CNC(=O)CCC(=O)O)C(C)(C)N1[O] (centres undefined) | > 400 µM
49 | Cc1c(C)c2c(c(C)c1OC(=O)CCC(=O)O)CCC(C)(C(=O)NC1CC(C)(C)N([O])C(C)(C)C1)O2 (centres undefined) | > 300 µM
